# Measured values from PMC4955201, “α-Glucosidase inhibitors from the bark of Mangifera mekongensis” (Chemistry Central Journal, 2016).
# Like-named read-outs stand apart in the source and are kept apart here.
# Biological target: T1, α-Glucosidase (EC 3.2.1.20) from Saccharomyces cerevisiae (Saccharomyces cerevisiae, UniProt P53341)
# T1 construct: purchased Sigma Chemical Co. (St. Louis, MO, USA)
# Experiment: biochemical
# Assay type: biochemical
# Conditions: for inhibition at 10 µM / inhibition at 25 µM / inhibition at 50 µM / inhibition at 100 µM / inhibition at 250 µM / inhibition at 1 µM / inhibition at 2.5 µM / inhibition at 5 µM: read-out: Inhibition (I %); for α-glucosidase inhibitory activity (in words): tested at 1 to 250 µM
# Procedure: α-Glucosidase (EC 3.2.1.20) from Saccharomyces cerevisiae (750 UN) and p-nitrophenyl-α-D-glucopyranoside were obtained from Sigma Chemical Co. (St. Louis, MO, USA). […] Silica gel 60, 40–63 µm (230–400 mesh ASTM), for column chromatography was purchased from Scharlau (Barcelona, Spain). Analytical and preparative TLC were carried out on precoated Kiesegel 60F254 or RP-18F254 plates (0.25 or 0.5 mm thickness) (Merck, Germany). Other chemicals were of the highest grade available.
# The inhibitory activity of α-glucosidase was determined according to the modified method of Kim et al.. 3 mM p-nitrophenyl-α-D-glucopyranoside (25 μL) and 0.2 U/mL α-glucosidase (25 μL) in 0.01 M phosphate buffer (pH = 7.0) were added to the sample solution (625 μL) to start the reaction. Each reaction was carried out at 37 °C for 30 min and stopped by adding 0.1 M Na2CO3 (375 μL). […] One unit of α-glucosidase activity was defined as amount of enzyme liberating p-nitrophenol ([…]) per min.
# [1] = isolated compounds, pH 7.0, 37 °C, 30 min, read-out: α-Glucosidase inhibitory activity IC50
# T1 sequence (P53341 whole entry): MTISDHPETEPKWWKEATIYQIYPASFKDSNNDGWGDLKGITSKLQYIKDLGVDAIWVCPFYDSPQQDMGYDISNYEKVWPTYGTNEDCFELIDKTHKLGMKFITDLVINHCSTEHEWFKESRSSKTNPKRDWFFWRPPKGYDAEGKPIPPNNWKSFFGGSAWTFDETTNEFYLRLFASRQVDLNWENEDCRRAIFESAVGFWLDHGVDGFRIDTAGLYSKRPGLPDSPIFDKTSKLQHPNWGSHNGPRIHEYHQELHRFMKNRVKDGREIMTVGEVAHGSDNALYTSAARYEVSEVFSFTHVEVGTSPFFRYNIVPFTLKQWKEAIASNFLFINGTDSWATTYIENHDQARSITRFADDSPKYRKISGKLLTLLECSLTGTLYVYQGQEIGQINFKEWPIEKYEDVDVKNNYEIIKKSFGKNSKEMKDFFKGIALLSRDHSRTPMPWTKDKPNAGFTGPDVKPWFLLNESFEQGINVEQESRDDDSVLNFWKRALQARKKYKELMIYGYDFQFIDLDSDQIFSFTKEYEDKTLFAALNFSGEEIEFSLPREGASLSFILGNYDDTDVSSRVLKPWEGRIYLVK
SMILES,IC50 [1] [µM],inhibition at 10 µM [%],inhibition at 25 µM [%],inhibition at 50 µM [%],inhibition at 100 µM [%],inhibition at 250 µM [%],IC50 [µM],α-glucosidase inhibitory activity (in words),inhibition at 1 µM [%],inhibition at 2.5 µM [%],inhibition at 5 µM [%]
"CCCCCCCCCCCCCCCC(=O)OC[C@H]1O[C@@H](O[C@H]2CC[C@@]3(C)C(=CC[C@H]4[C@@H]5CC[C@H]([C@H](C)CC[C@@H](CC)C(C)C)[C@@]5(C)CC[C@@H]43)C2)[C@H](O)[C@@H](O)[C@@H]1O [Compound 5, β-sitosteryl-3-O-β-D-glucopyranosyl-6′-O-palmitate]",21.1,32.1 ± 2.3,49.7 ± 3.1,75.9 ± 2.6,90.9 ± 1.4,–,–,–,–,–,–
"C[C@H]1O[C@H](O[C@H]2[C@H](O)[C@@H](O)[C@@H](O[C@H]3[C@H](O)[C@@H](O)C(O)O[C@@H]3CO)O[C@@H]2CO)[C@H](O)[C@@H](O)[C@@H]1N[C@H]1C=C(CO)[C@@H](O)[C@H](O)[C@H]1O (stereo partly shown) [Acarbose, reference compound]",–,–,–,9.8 ± 1.1,21.2 ± 2.2,59.8 ± 1.2,–,–,–,–,–
"CC(=CCCC(C)C1CCC2(C)C3CCC4C(C)(C)C(O)CCC45CC35CCC12C)C(=O)O (stereo not shown) [Compound 9, ambolic acid]",–,–,–,15.9 ± 1.1,32.2 ± 1,95.9 ± 1,112,–,–,–,–
"CC[C@H](CC[C@@H](C)[C@H]1CC[C@H]2[C@@H]3CC=C4C[C@@H](O)CC[C@]4(C)[C@H]3CC[C@]12C)C(C)C [Compound 3, β-sitosterol]",> 250,–,–,–,–,–,–,inactive,–,–,–
"CC(=CCCC(C)C1CCC2(C)C3CCC4C(C)(C)C(=O)CCC45CC35CCC12C)C(=O)O (stereo not shown) [Compound 8, ambonic acid]",–,87.5 ± 1,–,–,–,–,1.2,–,46.5 ± 1.1,62.5 ± 1.1,78.4 ± 1.6
"CCC(CCC(C)C1CCC2C3CC=C4CC(OC(=O)CCCCCCCC(=O)O)CCC4(C)C3CCC12C)C(C)C (stereo not drawn) [Compound 2, 3β-(8-carboxyoctanoyl)sitosterol]",2.5,93.1 ± 1.2,–,–,–,–,–,–,15.2 ± 1.2,50.8 ± 1.1,82.6 ± 1.4
"CCCCCCCCCCCCCCCCCCC(=O)OC1CCC2(C)C(=CCC3C2CCC2(C)C(C(C)CCC(CC)C(C)C)CCC32)C1 (stereo not drawn) [Compound 1, 3β-nonadecanoylsitosterol]",27.7,24.4 ± 1.8,38.6 ± 1.2,67.7 ± 1.4,91.8 ± 1.1,–,–,–,–,–,–
"CC[C@H](CC[C@@H](C)[C@H]1CC[C@H]2[C@@H]3CC(=O)C4CC(=O)CC[C@]4(C)[C@H]3CC[C@]12C)C(C)C (stereo partly shown) [Compound 4, stigmastane-3,6-dione]",> 250,–,–,–,–,–,–,inactive,–,–,–
